Experimental findings from ChEMBL document CHEMBL1201862, “PubChem BioAssay data set” (2004) are described below.

Molecules are shown by their SMILES.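 Cultured in 96-well plates, cells were exposed to test compound for 48 hours across five concentrations. The concentration for 50% growth inhibition is given as GI50.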 Activity calls are given as the source filed them. No stated cut-off is given here; in the data, active = GI50 up to about 1.1 µM and inactive = higher.

Test systems include NCI/ADR-RES; IGROV-1; SNB-19; A549; SK-OV-3; HT-29; TK-10; SK-MEL-5; HOP-92; UO-31; RXF 393; M14; NCI-H460; BT-549; SF-268; NCI-H522; SK-MEL-28; OVCAR-4; UACC-62; T47D.
Common to all, as to experiment: NCI-60 cell line screen, 48 h

Turning to `COc1ccc(-c2cc(C3CC3)nc(SCC(=O)O)c2C#N)cc1`, the GI50 was > 100 µM (inactive) in the experiment on NCI/ADR-RES; > 100 µM (inactive) with IGROV-1; > 100 µM (inactive) with SNB-19; 44 µM (inactive) in the experiment on A549; 56.2 µM (inactive) in the experiment on SK-OV-3; > 100 µM (inactive) in the experiment on HT-29. Also, the GI50 was > 100 µM (inactive) in the experiment on TK-10; > 100 µM (inactive) in the experiment with SK-MEL-5; 82.6 µM (inactive) with HOP-92; 1.85 µM (inactive) with UO-31; 62.8 µM (inactive) with RXF 393; > 100 µM (inactive) with M14. Moreover, the GI50 in the experiment on NCI-H460 is 52.1 µM (inactive); in the experiment with BT-549, > 100 µM (inactive); in the experiment with SF-268 it was > 100 µM (inactive); with NCI-H522 it was 25.1 µM (inactive); in the experiment on SK-MEL-28, > 100 µM (inactive); in the experiment on OVCAR-4 it was 79.8 µM (inactive). In addition, the GI50 in the experiment with UACC-62 and in the experiment on T47D was > 100 µM (inactive) each time.

As for `CC(=O)O[C@H]1C[C@@H](O[C@H]2[C@@H](O)C[C@H](O[C@H]3[C@@H](O)C[C@H](O[C@H]4CC[C@@]5(C)[C@H](CC[C@@H]6[C@@H]5C[C@@H](O)[C@]5(C)[C@@H](C7=CC(=O)OC7)CC[C@]65O)C4)O[C@@H]3C)O[C@@H]2C)O[C@H](C)[C@H]1O.CC(=O)O[C@H]1[C@@H](O)C[C@@H](O[C@H]2[C@@H](O)C[C@H](O[C@H]3[C@@H](O)C[C@H](O[C@H]4CC[C@@]5(C)[C@H](CC[C@@H]6[C@@H]5C[C@@H](O)[C@]5(C)[C@@H](C7=CC(=O)OC7)CC[C@]65O)C4)O[C@@H]3C)O[C@@H]2C)O[C@@H]1C`, the GI50 in the experiment with NCI/ADR-RES was 0.0238 µM (active); with IGROV-1, 0.0354 µM (active); in the experiment with SNB-19, 0.0637 µM (active); with A549, 0.0119 µM (active); in the experiment on SK-OV-3, 0.0385 µM (active); with HT-29, 0.0278 µM (active). The GI50 in the experiment with TK-10 was 0.0299 µM (active); in the experiment with SK-MEL-5, 0.0296 µM (active); with HOP-92, 0.0561 µM (active); in the experiment with UO-31 it was 0.0486 µM (active); in the experiment with RXF 393, 0.0279 µM (active); with M14, 0.0637 µM (active). Moreover, the GI50 was 0.0148 µM (active) in the experiment on NCI-H460; 0.0425 µM (active) with BT-549; 0.0236 µM (active) with SF-268; < 0.01 µM (active) in the experiment on NCI-H522; 0.129 µM (active) with SK-MEL-28; 0.0153 µM (active) in the experiment on OVCAR-4. The GI50 is 0.0387 µM (active) with UACC-62 and 0.0455 µM (active) in the experiment on T47D.

Turning to `CC(=O)Nc1nc(NC(C)=O)c2nc(CO)[nH]c2n1`, the GI50 with NCI/ADR-RES, in the experiment on IGROV-1, in the experiment on SNB-19, with A549, in the experiment with SK-OV-3 and with HT-29 was > 100 µM (inactive) in each case. Besides, the GI50 in the experiment on TK-10, in the experiment on SK-MEL-5, with HOP-92, in the experiment on UO-31, in the experiment on RXF 393 and in the experiment with M14 was > 100 µM (inactive) throughout. Moreover, the GI50 with NCI-H460, with BT-549, in the experiment with SF-268, with NCI-H522, in the experiment with SK-MEL-28 and in the experiment with OVCAR-4 was > 100 µM (inactive) in each case. The GI50 in the experiment with UACC-62 and with T47D was > 100 µM (inactive) each time.

Turning to `CCC(=C/[C@H](C)C/C=C/C(C)=C/[C@@H](C)C(=O)[C@@H](C)[C@H](O)[C@@H](C)CC)/C=C/[C@H]1CC=CC(=O)O1` [CALLYSTATIN A], the GI50 in the experiment on NCI/ADR-RES, in the experiment on IGROV-1, with SNB-19, with A549, in the experiment on SK-OV-3 and in the experiment on HT-29 was < 0.0012 µM (active) in each case. In addition, the GI50 was < 0.0012 µM (active) with TK-10; < 0.0012 µM (active) in the experiment with SK-MEL-5; 0.329 µM (active) with HOP-92; < 0.0012 µM (active) in the experiment with UO-31; < 0.0012 µM (active) in the experiment on RXF 393; < 0.0012 µM (active) in the experiment with M14. Moreover, the GI50 in the experiment on NCI-H460, in the experiment on BT-549, in the experiment on SF-268, in the experiment on NCI-H522, with SK-MEL-28 and in the experiment with OVCAR-4 was < 0.0012 µM (active) throughout. The GI50 with UACC-62 and with T47D was < 0.0012 µM (active) each time.
